Tested on: pyramidal neurons of the hippocampal CA3 subfield
Test: Traumatic brain injury: delayed apoptotic neuronal death, neuronal densities in CA3 hippocampus
Type: in vivo, Adult Wistar rats
Conditions: for Neuronal densities CA3 hippocampus: traumatized right side, ± SEM
Protocol: 1. Traumatic Brain Injury: Delayed Apoptotic Neuronal Death
Contusing device. The contusing device consisted of a stainless steel tube, 40 cm in length, perforated at 1 cm intervals to prevent air compression in the tube. Adult Wistar rats, 230-270 g, were anesthetized with chloral hydrate, 400 mg/kg i.p., a craniotomy over the right hemisphere was made, the device guiding a falling weight onto the footplate resting upon the surface of the dura was placed perpendicular to the surface of the skull, and a force of 380 g×cm produced by a 20 g weight was selected to produce brain contusion. A maximum of 2.5 mm depression of the brain surface was allowed to avoid mechanical puncture of the dura. The center of the footplate was stereotaxically positioned 1.5 mm posterior and 2.5 mm lateral to the bregma. The rats underwent perfusion fixation 3 days after brain injury with a solution containing 4% paraformaldehyde in phosphate buffer.
Intracerebroventricular injections: Compounds were administered intracerebroventricularly (=i.c.v.) by means of a Hamilton syringe in a volume of 5-15 μl. Injections were performed over 5 min, 15 min-8 hrs after trauma using the following stereotaxic coordinates: AP=−0.5 mm, L=−2 mm and V=−5.5 in relation to bregma (Swanson, L. W. (1992) Brain Maps: Structure of the Rat Brain, Elsevier, Amsterdam).
Morphometric analysis in hippocampus. The damage in the hippocampal CA3 subfield was determined stereologically at 5 different rostrocaudal levels extending from 10.21 to 11.21 mm (Swanson, L. W. (1992) Brain Maps Structure of the Rat Brain, Elsevier, Amsterdam) and throughout its mediolateral axis three days after traumatic injury. To quantitatively assess neuronal loss in the hippocampus, stereological disector technique (Cruz-Orive, L. M. & Weibel, E. R. (1990) Am. J. Physiol. 258, L148-L156) was used to estimate numerical density (Nv) of pyramidal neurons. An unbiased counting frame (0.05 mm×0.05 mm; disector height 0.01 mm) and a high-aperture objective (×40) were used for sampling. Normal neurons were identified by the presence of the typical nuclei with clear nucleoplasm and distinct nucleolus surrounded by cytoplasm containing Nissl substance. The border between CA2 and CA3 subfields was considered as the point where the looser arrangement of large pyramidal cells goes into densely packed pyramidal cells of the subfield CA3. An arbitrary line connecting the lateral ends of the dentate granule cell layers was considered a junction between subfields CA3 and CA4.
Dose response of the neuroprotective effect of the test substance of Example 3 when administered i.c.v. 15 min after trauma to adult Wistar rats was measured. Neuronal densities were determined in the CA3 hippocampal subfield as described in the methods. Densities of CA3 neurons ±Standard Error of […] (=SEM) in 6 stereotactic levels in the left non-traumatized side of vehicle treated rats and the traumatized right side of vehicle treated rats and in rats treated with the test substance of Example 3 were measured and the results listed in table 6 below.
The time window of the neuroprotective effect of test substance of Example 3 when administered i.c.v. 2, 4 or 8 hrs after trauma to adult Wistar rats was measured. Neuronal densities were determined in the CA3 hippocampal subfield as described in the methods. Densities of CA3 neurons ±SEM in 6 stereotactic levels in the traumatized right side of rats treated with either vehicle or the test compound of Example 3 were measured and the results listed in table 7 below.

CC(C)NC(=O)CC(CC1(C(=O)N[C@H]2CCc3ccccc3N(CC(=O)O)C2=O)CCCC1)C(=O)O (stereo in doubt) [Example 3, (2″rel1″)-2-{[(3S)-1-({[1-(carboxymethyl)-2-oxo-2,3,4,5-tetrahydro-1H-1-benzazepin-3-yl]amino}-carbonyl)cyclopentyl]methyl}-4-(isopropylamino)-4-oxobutyric acid]
Neuronal densities CA3 hippocampus (3 μg i.c.v. 15 min after trauma, stereotactic level 10.21): 98.40 ± 4.39 cells × 10^3/mm^3
Neuronal densities CA3 hippocampus (3 μg i.c.v. 15 min after trauma, stereotactic level 10.41): 89.00 ± 5.05 cells × 10^3/mm^3
Neuronal densities CA3 hippocampus (3 μg i.c.v. 15 min after trauma, stereotactic level 10.61): 72.80 ± 6.01 cells × 10^3/mm^3
Neuronal densities CA3 hippocampus (3 μg i.c.v. 15 min after trauma, stereotactic level 10.81): 84.20 ± 6.47 cells × 10^3/mm^3
Neuronal densities CA3 hippocampus (3 μg i.c.v. 15 min after trauma, stereotactic level 11.01): 86.00 ± 7.44 cells × 10^3/mm^3
Neuronal densities CA3 hippocampus (3 μg i.c.v. 15 min after trauma, stereotactic level 11.21): 95.40 ± 6.96 cells × 10^3/mm^3
effect on hippocampal neuronal loss (10 μg i.c.v. 2, 4 or 8 hrs after trauma, P<0.001 at 2 and 4 hrs, P<0.01 for 8 hrs): partially prevented hippocampal neuronal loss
Neuronal densities CA3 hippocampus (10 μg i.c.v. 15 min after trauma, stereotactic level 10.21): 108.60 ± 4.30 cells × 10^3/mm^3
Neuronal densities CA3 hippocampus (10 μg i.c.v. 15 min after trauma, stereotactic level 10.41): 108.60 ± 5.34 cells × 10^3/mm^3
Neuronal densities CA3 hippocampus (10 μg i.c.v. 15 min after trauma, stereotactic level 10.61): 111.40 ± 7.09 cells × 10^3/mm^3
Neuronal densities CA3 hippocampus (10 μg i.c.v. 15 min after trauma, stereotactic level 10.81): 112.00 ± 6.42 cells × 10^3/mm^3
Neuronal densities CA3 hippocampus (10 μg i.c.v. 15 min after trauma, stereotactic level 11.01): 111.40 ± 7.11 cells × 10^3/mm^3
Neuronal densities CA3 hippocampus (10 μg i.c.v. 15 min after trauma, stereotactic level 11.21): 119.20 ± 3.70 cells × 10^3/mm^3
Neuronal densities CA3 hippocampus (10 μg i.c.v. 2 hrs after trauma, stereotactic level 10.21): 72.30 ± 4.80 cells × 10^3/mm^3
Neuronal densities CA3 hippocampus (10 μg i.c.v. 2 hrs after trauma, stereotactic level 10.41): 68.10 ± 6.30 cells × 10^3/mm^3
Neuronal densities CA3 hippocampus (10 μg i.c.v. 2 hrs after trauma, stereotactic level 10.61): 60.80 ± 5.60 cells × 10^3/mm^3
Neuronal densities CA3 hippocampus (10 μg i.c.v. 2 hrs after trauma, stereotactic level 10.81): 60.20 ± 9.40 cells × 10^3/mm^3
Neuronal densities CA3 hippocampus (10 μg i.c.v. 2 hrs after trauma, stereotactic level 11.01): 63.00 ± 11.70 cells × 10^3/mm^3
Neuronal densities CA3 hippocampus (10 μg i.c.v. 2 hrs after trauma, stereotactic level 11.21): 67.70 ± 14.00 cells × 10^3/mm^3
Neuronal densities CA3 hippocampus (10 μg i.c.v. 4 hrs after trauma, stereotactic level 10.21): 72.20 ± 5.70 cells × 10^3/mm^3
Neuronal densities CA3 hippocampus (10 μg i.c.v. 4 hrs after trauma, stereotactic level 10.41): 65.90 ± 8.80 cells × 10^3/mm^3
Neuronal densities CA3 hippocampus (10 μg i.c.v. 4 hrs after trauma, stereotactic level 10.61): 63.00 ± 6.30 cells × 10^3/mm^3
Neuronal densities CA3 hippocampus (10 μg i.c.v. 4 hrs after trauma, stereotactic level 10.81): 60.50 ± 10.50 cells × 10^3/mm^3
Neuronal densities CA3 hippocampus (10 μg i.c.v. 4 hrs after trauma, stereotactic level 11.01): 62.20 ± 13.50 cells × 10^3/mm^3
Neuronal densities CA3 hippocampus (10 μg i.c.v. 4 hrs after trauma, stereotactic level 11.21): 66.30 ± 15.90 cells × 10^3/mm^3
Neuronal densities CA3 hippocampus (10 μg i.c.v. 8 hrs after trauma, stereotactic level 10.21): 62.00 ± 4.90 cells × 10^3/mm^3
Neuronal densities CA3 hippocampus (10 μg i.c.v. 8 hrs after trauma, stereotactic level 10.41): 53.00 ± 6.44 cells × 10^3/mm^3
Neuronal densities CA3 hippocampus (10 μg i.c.v. 8 hrs after trauma, stereotactic level 10.61): 53.00 ± 6.00 cells × 10^3/mm^3
Neuronal densities CA3 hippocampus (10 μg i.c.v. 8 hrs after trauma, stereotactic level 10.81): 52.50 ± 4.48 cells × 10^3/mm^3
Neuronal densities CA3 hippocampus (10 μg i.c.v. 8 hrs after trauma, stereotactic level 11.01): 61.80 ± 4.48 cells × 10^3/mm^3
Neuronal densities CA3 hippocampus (10 μg i.c.v. 8 hrs after trauma, stereotactic level 11.21): 65.90 ± 4.90 cells × 10^3/mm^3
Neuronal densities CA3 hippocampus (30 μg i.c.v. 15 min after trauma, stereotactic level 10.21): 108.40 ± 3.15 cells × 10^3/mm^3
Neuronal densities CA3 hippocampus (30 μg i.c.v. 15 min after trauma, stereotactic level 10.41): 105.20 ± 5.76 cells × 10^3/mm^3
Neuronal densities CA3 hippocampus (30 μg i.c.v. 15 min after trauma, stereotactic level 10.61): 94.20 ± 5.10 cells × 10^3/mm^3
Neuronal densities CA3 hippocampus (30 μg i.c.v. 15 min after trauma, stereotactic level 10.81): 83.20 ± 7.10 cells × 10^3/mm^3
Neuronal densities CA3 hippocampus (30 μg i.c.v. 15 min after trauma, stereotactic level 11.01): 80.20 ± 7.45 cells × 10^3/mm^3
Neuronal densities CA3 hippocampus (30 μg i.c.v. 15 min after trauma, stereotactic level 11.21): 90.00 ± 9.24 cells × 10^3/mm^3
effect on hippocampal neuronal loss (3, 10 or 30 μg i.c.v. 15 min after trauma, ANOVA P<0.001 for all three doses): partially prevented hippocampal neuronal loss
neuroprotective effect (time window) (administered i.c.v. up to 8 hrs after trauma): neuroprotective effect was still evident
neuroprotective effect (dose response) (i.c.v. after trauma): dose-dependent neuroprotective effect
most effective dose against hippocampal neuronal loss (of 3, 10 or 30 μg i.c.v. 15 min after trauma): 10 µg

Reference: US20080085889A1, “Amidomethyl-Substituted 1-(Carboxyalkyl) Cyclopentyl-Carbonylamino-Benzazepine-N-Acetic Acid Compounds, Process and Intermediate Products for Their Preparation and Pharmaceutical Compositions Containing Them” (SOLVAY PHARMACEUTICALS GmbH, priority 2003, published 2008)
